Results published in patent US20180318287A1, “Imidazo[4,5-c]quinolin-2-one Compounds and Their Use in Treating Cancer” (ASTRAZENECA AB, priority 2015, published 2018).

Tests used:
ATR kinase = biological target: T1, ATR kinase (Homo sapiens, UniProt Q13535); test: Assay b): ATR cellular potency (pChk1 Ser345 in HT29 cells after 4NQO); assay type: cell-based; settings: HT29 cells, 4NQO, pChk1 Ser345; Table 2; read-out: Assay b) ATR Cell IC50
T1 construct: endogenous in cells; host or cells: HT29 cells (ECACC #85061109)
Method: ATR is a PI 3-kinase-related kinase which phosphorylates multiple substrates on serine or threonine residues in response to DNA damage during or replication blocks. Chk1, a downstream protein kinase of ATR, plays a key role in DNA damage checkpoint control. Activation of Chk1 involves phosphorylation of Ser317 and Ser345 (the latter regarded as the preferential target for phosphorylation/activation by ATR).
The following morning compound of Formula (I) in 100% DMSO were added to assay plates by acoustic dispensing. After 1 h incubation at 37° C. and 5% CO2, 40 nl of 3 mM 4NQO in 100% DMSO was added to all wells by acoustic dispensing, except minimum control wells which were left untreated with 4NQO to generate a null response control. Plates were returned to the incubator for a further 1 h. […] Then 20 μl of 0.1% Triton X100 in PBS was added and incubated for 10 minutes at r.t., to permeabalise cells. Then the plates were washed once with 50 μl/well PBS, using a Biotek EL405 plate washer.
After 2 h incubation at r.t., the plates were washed three times with 50 μl/well PBS, using a Biotek EL405 plate washer, and plates were then sealed with black plate seals until read. Plates were read using an ArrayScan VTI instrument, using an XF53 filter with 10× objective.

ATM kinase = biological target: T2, ATM kinase (Homo sapiens, UniProt Q13315); test: Assay a): ATM cellular potency (pATM Ser1981 in irradiated HT29 cells); assay type: cell-based; settings: HT29 cells, X-ray irradiation, pATM Ser1981; Table 2; read-out: Assay a) ATM Cell IC50
T2 construct: endogenous in cells; host or cells: HT29 cells (ECACC #85061109)
Method: Most ATM molecules in the cell are rapidly phosphorylated on this site after doses of radiation as low as 0.5 Gy, and binding of a phosphospecific antibody is detectable after the introduction of only a few DNA double-strand breaks in the cell.
The rationale of the p ATM assay is to identify inhibitors of ATM in cells. HT29 cells are incubated with test compounds for 1 hr prior to X-ray-irradiation. 1 h later the cells are fixed and stained for p ATM (Ser1981). The fluorescence is read on the arrayscan imaging platform.
The following morning compounds of Formula (I) in 100% DMSO were added to assay plates by acoustic dispensing. After 1 h incubation at 37° C. and 5% CO2, plates (up to 6 at a time) were irradiated using the X-RAD 320 instrument (PXi) with equivalent to ˜600cGy. Plates were returned to the incubator for a further 1 h. […] Then 20 μl of 0.1% Triton X100 in PBS was added and incubated for 20 minutes at r.t., to permeabalise cells. Then the plates were washed once with […] PBS, using a Biotek EL405 plate washer.
After 1 h incubation at r.t., the plates were washed three times with 50 μl/well PBS, using a Biotek EL405 plate washer, and plates were sealed and kept in PBS at 4° C. until read. Plates were read using an ArrayScan VTI instrument, using an XF53 filter with 10× objective.

T2 sequence (Q13315 whole entry): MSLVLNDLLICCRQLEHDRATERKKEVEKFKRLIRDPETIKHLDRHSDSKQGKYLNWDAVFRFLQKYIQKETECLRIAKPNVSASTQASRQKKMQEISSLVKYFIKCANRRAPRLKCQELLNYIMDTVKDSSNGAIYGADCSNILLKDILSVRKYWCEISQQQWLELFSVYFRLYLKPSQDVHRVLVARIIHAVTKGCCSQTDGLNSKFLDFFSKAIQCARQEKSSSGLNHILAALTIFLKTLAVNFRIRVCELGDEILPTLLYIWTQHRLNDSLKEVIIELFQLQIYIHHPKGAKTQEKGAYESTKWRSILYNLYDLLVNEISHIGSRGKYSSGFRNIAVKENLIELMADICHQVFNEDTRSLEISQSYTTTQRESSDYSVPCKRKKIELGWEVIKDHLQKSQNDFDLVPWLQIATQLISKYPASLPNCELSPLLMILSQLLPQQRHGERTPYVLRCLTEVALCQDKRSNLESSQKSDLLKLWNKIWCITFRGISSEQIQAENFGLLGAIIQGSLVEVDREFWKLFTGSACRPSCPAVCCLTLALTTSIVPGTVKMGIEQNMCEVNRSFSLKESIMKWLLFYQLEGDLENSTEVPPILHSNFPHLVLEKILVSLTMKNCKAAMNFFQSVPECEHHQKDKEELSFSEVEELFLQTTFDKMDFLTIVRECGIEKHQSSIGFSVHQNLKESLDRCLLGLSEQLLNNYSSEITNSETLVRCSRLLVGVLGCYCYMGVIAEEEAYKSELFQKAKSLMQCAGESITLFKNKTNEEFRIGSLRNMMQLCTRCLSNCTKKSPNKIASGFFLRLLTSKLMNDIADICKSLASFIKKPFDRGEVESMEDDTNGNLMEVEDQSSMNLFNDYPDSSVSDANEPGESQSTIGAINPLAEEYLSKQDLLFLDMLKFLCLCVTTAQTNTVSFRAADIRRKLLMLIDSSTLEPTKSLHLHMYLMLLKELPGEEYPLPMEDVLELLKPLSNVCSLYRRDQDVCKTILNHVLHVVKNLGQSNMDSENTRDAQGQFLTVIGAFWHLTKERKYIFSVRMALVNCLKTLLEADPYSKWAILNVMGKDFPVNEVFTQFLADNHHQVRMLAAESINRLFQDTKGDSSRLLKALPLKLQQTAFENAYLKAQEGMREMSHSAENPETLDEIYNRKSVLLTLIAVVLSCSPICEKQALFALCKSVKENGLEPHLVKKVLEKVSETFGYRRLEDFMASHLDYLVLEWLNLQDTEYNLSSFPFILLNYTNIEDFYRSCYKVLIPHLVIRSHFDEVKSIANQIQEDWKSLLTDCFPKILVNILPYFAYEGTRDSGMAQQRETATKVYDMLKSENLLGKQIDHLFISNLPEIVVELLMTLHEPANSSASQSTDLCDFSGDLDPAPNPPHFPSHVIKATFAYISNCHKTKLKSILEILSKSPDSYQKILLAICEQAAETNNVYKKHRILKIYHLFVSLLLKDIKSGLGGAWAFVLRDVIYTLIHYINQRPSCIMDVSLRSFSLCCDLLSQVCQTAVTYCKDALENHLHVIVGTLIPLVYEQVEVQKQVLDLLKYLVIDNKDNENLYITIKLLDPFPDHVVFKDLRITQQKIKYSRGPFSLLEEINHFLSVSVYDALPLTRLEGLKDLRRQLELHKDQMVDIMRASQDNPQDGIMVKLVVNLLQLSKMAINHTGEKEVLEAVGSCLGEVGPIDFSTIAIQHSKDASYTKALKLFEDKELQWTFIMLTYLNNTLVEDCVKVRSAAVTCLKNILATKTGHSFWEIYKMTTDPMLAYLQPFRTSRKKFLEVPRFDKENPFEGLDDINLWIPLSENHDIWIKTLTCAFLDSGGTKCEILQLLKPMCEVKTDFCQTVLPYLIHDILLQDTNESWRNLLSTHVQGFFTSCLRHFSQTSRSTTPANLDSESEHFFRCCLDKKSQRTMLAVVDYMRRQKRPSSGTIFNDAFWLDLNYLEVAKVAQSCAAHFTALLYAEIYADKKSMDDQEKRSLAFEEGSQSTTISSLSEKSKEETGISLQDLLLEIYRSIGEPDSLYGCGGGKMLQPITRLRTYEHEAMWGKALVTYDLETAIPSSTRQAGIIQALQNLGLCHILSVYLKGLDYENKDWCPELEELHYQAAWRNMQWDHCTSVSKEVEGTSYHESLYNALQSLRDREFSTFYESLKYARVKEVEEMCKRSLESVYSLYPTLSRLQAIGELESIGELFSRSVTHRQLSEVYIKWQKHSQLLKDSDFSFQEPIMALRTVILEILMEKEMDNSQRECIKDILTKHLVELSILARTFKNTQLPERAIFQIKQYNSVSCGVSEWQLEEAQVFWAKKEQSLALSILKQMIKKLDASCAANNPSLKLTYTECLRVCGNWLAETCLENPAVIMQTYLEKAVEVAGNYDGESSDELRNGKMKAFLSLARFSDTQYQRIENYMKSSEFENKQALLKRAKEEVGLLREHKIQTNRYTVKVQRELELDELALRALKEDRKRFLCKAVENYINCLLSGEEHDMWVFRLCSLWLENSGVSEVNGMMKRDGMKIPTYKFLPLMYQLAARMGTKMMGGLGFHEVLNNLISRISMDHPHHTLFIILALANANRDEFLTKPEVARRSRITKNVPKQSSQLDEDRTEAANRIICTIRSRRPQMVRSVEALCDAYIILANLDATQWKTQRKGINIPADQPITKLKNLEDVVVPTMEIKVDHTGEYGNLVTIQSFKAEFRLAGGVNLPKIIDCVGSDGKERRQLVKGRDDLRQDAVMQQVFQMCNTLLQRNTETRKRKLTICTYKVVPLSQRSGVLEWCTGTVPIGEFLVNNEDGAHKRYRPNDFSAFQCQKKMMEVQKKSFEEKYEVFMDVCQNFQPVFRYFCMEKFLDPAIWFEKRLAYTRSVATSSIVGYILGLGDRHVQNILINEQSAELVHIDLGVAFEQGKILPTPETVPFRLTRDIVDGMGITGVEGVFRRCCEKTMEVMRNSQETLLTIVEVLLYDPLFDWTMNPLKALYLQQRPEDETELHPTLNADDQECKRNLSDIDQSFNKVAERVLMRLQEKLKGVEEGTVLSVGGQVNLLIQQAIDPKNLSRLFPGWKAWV

Row | Structure (SMILES) | IC50 (ATR kinase) | IC50 (ATM kinase)
1 | CO[C@@H]1CCC[C@H](n2c(=O)n(C)c3cnc4ccc(-c5ccc(OCCCN(C)C)cc5)cc4c32)C1 (relative stereo) [Example 32, 8-[4-[3-(dimethylamino)propoxy]phenyl]-1-[cis-3-methoxycyclohexyl]-3-methyl-imidazo[4,5-c]quinolin-2-one] | > 30000 nM | 2.37 nM
2 | CO[C@@H]1CCC[C@H](n2c(=O)n(C)c3cnc4ccc(-c5ccc(OCCCN6CCCC6)cc5)cc4c32)C1 (relative stereo) [Example 38, 1-[cis-3-methoxycyclohexyl]-3-methyl-8-[4-(3-pyrrolidin-1-ylpropoxy)phenyl]imidazo[4,5-c]quinolin-2-one] | 19200 nM | 2.29 nM
3 | CO[C@H]1CC[C@H](n2c(=O)n(C)c3cnc4cc(F)c(-c5ccc(OCCCN(C)C)cc5)cc4c32)C1 (single isomer, unassigned) [Example 13, 8-[4-[3-(dimethylamino)propoxy]phenyl]-7-fluoro-1-[trans-3-methoxycyclopentyl]-3-methyl-imidazo[4,5-c]quinolin-2-one] | > 30000 nM | 1.63 nM
4 | CO[C@@H]1CC[C@@H](n2c(=O)n(C)c3cnc4cc(F)c(-c5ccc(OCCCN(C)C)cc5)cc4c32)C1 (single isomer, unassigned) [Example 14, 8-[4-[3-(dimethylamino)propoxy]phenyl]-7-fluoro-1-[trans-3-methoxycyclopentyl]-3-methyl-imidazo[4,5-c]quinolin-2-one] | > 29400 nM | 1.37 nM
5 | CO[C@H]1CCC[C@H](n2c(=O)n(C)c3cnc4ccc(-c5ccc(OCCCN(C)C)cc5)cc4c32)C1 (single isomer, unassigned) [Example 28, 8-[4-[3-(dimethylamino)propoxy]phenyl]-1-[trans-3-methoxycyclohexyl]-3-methyl-imidazo[4,5-c]quinolin-2-one] | 11300 nM | 0.285 nM
6 | CO[C@H]1CCC[C@H](n2c(=O)n(C)c3cnc4ccc(-c5ccc(OCCCN(C)C)cc5)cc4c32)C1 (single isomer, unassigned) [Example 29, 8-[4-[3-(dimethylamino)propoxy]phenyl]-1-[trans-3-methoxycyclohexyl]-3-methyl-imidazo[4,5-c]quinolin-2-one] | 12800 nM | 1.64 nM
7 | CO[C@H]1CCC[C@H](n2c(=O)n(C)c3cnc4ccc(-c5ccc(OCCCN6CCCC6)cc5)cc4c32)C1 (single isomer, unassigned) [Example 31, 1-[trans-3-methoxycyclohexyl]-3-methyl-8-[4-(3-pyrrolidin-1-ylpropoxy)phenyl]imidazo[4,5-c]quinolin-2-one] | 10900 nM | 0.706 nM
8 | CO[C@@H]1CC[C@H](n2c(=O)n(C)c3cnc4cc(F)c(-c5ccc(OCCCN(C)C)cc5)cc4c32)C1 (single isomer, unassigned) [Example 36, 8-[4-[3-(dimethylamino)propoxy]phenyl]-7-fluoro-1-[cis-3-methoxycyclopentyl]-3-methyl-imidazo[4,5-c]quinolin-2-one] | > 30000 nM | 5.77 nM
9 | CC(C)n1c(=O)n(C)c2cnc3ccc(-c4ccc(OCCCN(C)C)cc4)cc3c21 [Example 1, 8-[4-[3-(Dimethylamino)propoxy]phenyl]-1-isopropyl-3-methyl-imidazo[4,5-c]quinolin-2-one] | > 30000 nM | –
10 | CC(C)n1c(=O)n(C)c2cnc3ccc(-c4ccc(OCCCN5CCCC5)cc4)cc3c21 [Example 2, 1-isopropyl-3-methyl-8-[4-(3-pyrrolidin-1-ylpropoxy)phenyl]imidazo[4,5-c]quinolin-2-one] | > 30000 nM | 0.984 nM
11 | CC(C)n1c(=O)n(C)c2cnc3ccc(-c4ccc(OCCCN5CCC5)cc4)cc3c21 [Example 3, 8-[4-[3-(azetidin-1-yl)propoxy]phenyl]-1-isopropyl-3-methyl-imidazo[4,5-c]quinolin-2-one] | > 30000 nM | 0.173 nM
12 | CN(C)CCCOc1ccc(-c2cc3c(cc2F)ncc2c3n([C@H]3CCCOC3)c(=O)n2C)cc1 [Example 10, 8-[4-[3-(dimethylamino)propoxy]phenyl]-7-fluoro-3-methyl-1-[(3S)-tetrahydropyran-3-yl]imidazo[4,5-c]quinolin-2-one] | > 30000 nM | 3.92 nM
13 | Cn1c(=O)n([C@@H]2CCCOC2)c2c3cc(-c4ccc(OCCCN5CCCC5)cc4)ccc3ncc21 [Example 16, 3-methyl-8-[4-(3-pyrrolidin-1-ylpropoxy)phenyl]-1-[(3R)-tetrahydropyran-3-yl]imidazo[4,5-c]quinolin-2-one] | > 26000 nM | 0.797 nM
14 | CO[C@H]1CC[C@H](n2c(=O)n(C)c3cnc4ccc(-c5ccc(OCCCN6CCCC6)cc5)cc4c32)CC1 [Example 22, 1-(trans-4-methoxycyclohexyl)-3-methyl-8-[4-(3-pyrrolidin-1-ylpropoxy)phenyl]imidazo[4,5-c]quinolin-2-one] | > 10000 nM | 0.458 nM
15 | CO[C@H]1CC[C@H](n2c(=O)n(C)c3cnc4ccc(-c5ccc(OCCCN(C)C)cc5)cc4c32)CC1 [Example 26, 8-[4-[3-(dimethylamino)propoxy]phenyl]-1-(trans-4-methoxycyclohexyl)-3-methyl-imidazo[4,5-c]quinolin-2-one] | > 30000 nM | 0.467 nM
16 | CO[C@H]1CC[C@@H](n2c(=O)n(C)c3cnc4ccc(-c5ccc(OCCCN6CCCC6)cc5)cc4c32)CC1 [Example 27, 1-(cis-4-methoxycyclohexyl)-3-methyl-8-[4-(3-pyrrolidin-1-ylpropoxy)phenyl]imidazo[4,5-c]quinolin-2-one] | > 18500 nM | 0.492 nM
17 | CO[C@H]1CC[C@H](n2c(=O)n(C)c3cnc4ccc(-c5ccc(OCCCN6CCCCC6)cc5)cc4c32)C1 [Example 40, 1-[(1S,3S)-3-methoxycyclopentyl]-3-methyl-8-[4-[3-(1-piperidyl)propoxy]phenyl]imidazo[4,5-c]quinolin-2-one] | – | 0.349 nM
18 | CO[C@H]1C[C@@H](n2c(=O)n(C)c3cnc4ccc(-c5ccc(OCCCN6CCCC6)cc5)cc4c32)C1 [Example 41, 1-(cis-3-methoxycyclobutyl)-3-methyl-8-[4-(3-pyrrolidin-1-ylpropoxy)phenyl]imidazo[4,5-c]quinolin-2-one] | > 28800 nM | 0.23 nM
19 | Cn1c(=O)n(C2CCOCC2)c2c3cc(-c4ccc(OCCCN5CCCC5)cc4)c(F)cc3ncc21 [Example 46, 7-fluoro-3-methyl-8-[4-(3-pyrrolidin-1-ylpropoxy)phenyl]-1-tetrahydropyran-4-yl-imidazo[4,5-c]quinolin-2-one] | 16800 nM | 2 nM
